# Experimental data published in US20260297070A1, “CYCLIC [COMPOUND LEFT OUT] WRN INHIBITORS” (Nimbus Wadjet, Inc., priority 2023, published 2026).
# Molecular target: T1, human Werner helicase (WRN-BV08, Uniprot Q14191, amino acids 517-1235 with L1074F point mutation) (Homo sapiens, UniProt Q14191, L1074F)
# T1 construct: Uniprot Q14191, amino acids 517-1235 with L1074F point mutation; TEV-cleavable 8×His (C, cleaved yes); made in house; host or cells: Sf9 insect cells (baculovirus)
# Assay: WRN (BV08) ADP-Glo Assay
# Type: biochemical
# Conditions: 0.15 nM WRN, 5 μM ATP, 0.1 nM DNA duplex, 15 min preincubation, 60 min at 25° C., pH 7.5, 1% DMSO; read-out: ADP-Glo_hWRN_IC50
# Procedure, shortened: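 ADP produced by WRN helicase fragment 517-1235 (L1074F, baculovirus/Sf9, untagged) read by ADP-Glo luminescence after 60 min at 25 °C with 5 μM ATP and 0.1 nM duplex DNA, following 15 min compound preincubation. Final enzyme 0.15 nM in Bicine pH 7.5 buffer, 1% DMSO; 20 μM NSC-617145 defined full inhibition.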
# T1 sequence (Q14191 with tags, fused parts or gaps L1074F limits assumed): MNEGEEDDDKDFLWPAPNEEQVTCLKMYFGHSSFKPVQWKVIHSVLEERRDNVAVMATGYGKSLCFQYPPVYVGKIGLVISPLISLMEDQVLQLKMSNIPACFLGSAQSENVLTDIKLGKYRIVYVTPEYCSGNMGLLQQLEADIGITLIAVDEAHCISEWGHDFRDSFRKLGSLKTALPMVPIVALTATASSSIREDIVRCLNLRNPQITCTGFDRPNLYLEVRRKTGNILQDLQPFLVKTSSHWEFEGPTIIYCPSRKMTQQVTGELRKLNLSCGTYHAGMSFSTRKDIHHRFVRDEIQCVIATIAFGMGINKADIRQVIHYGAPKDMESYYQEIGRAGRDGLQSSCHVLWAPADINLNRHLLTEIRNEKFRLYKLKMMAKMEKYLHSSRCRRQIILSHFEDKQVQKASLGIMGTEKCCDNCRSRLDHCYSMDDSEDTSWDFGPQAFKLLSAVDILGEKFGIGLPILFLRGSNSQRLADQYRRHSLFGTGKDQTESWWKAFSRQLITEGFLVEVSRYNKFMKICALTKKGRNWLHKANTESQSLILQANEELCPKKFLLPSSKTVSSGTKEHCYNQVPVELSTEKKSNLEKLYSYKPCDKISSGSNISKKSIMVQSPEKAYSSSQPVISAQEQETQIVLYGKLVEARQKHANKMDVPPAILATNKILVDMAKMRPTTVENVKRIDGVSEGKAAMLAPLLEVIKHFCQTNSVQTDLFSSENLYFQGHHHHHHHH
row,Structure (SMILES),IC50
1,"COc1cc(CN(C(=O)C(OCCS(C)(=O)=O)c2ccc(-c3ccc(F)c(F)c3)cc2F)[C@@H]2C=CS(=O)(=O)C2)ccn1 (stereo partly drawn) [I-707, N-[(3R)-1,1-dioxo-2,3-dihydro-1lambda6-thiophen-3-yl]-2-(2-methanesulfonylethoxy)-N-[(2-methoxypyridin-4-yl)methyl]-2-{3,3′,4′-trifluoro-[1,1′-biphenyl]-4-yl}acetamide]",0.5 to 5 µM
2,"COc1cc(CN(C(=O)Cn2cc(-c3ccc(F)c(F)c3)c(C)n2)[C@@H]2C=CS(=O)(=O)C2)ccn1 [I-713, 2-[4-(3,4-difluorophenyl)-3-methyl-1H-pyrazol-1-yl]-N-[(3R)-1,1-dioxo-2,3-dihydro-1lambda6-thiophen-3-yl]-N-[(2-methoxypyridin-4-yl)methyl]acetamide]",10 to 50 µM
3,"COc1ccc2c(c1)CCCC2C(=O)N(Cc1ccncc1)C1C=CS(=O)(=O)C1 (stereo not shown) [I-717, N-(1,1-dioxo-2,3-dihydro-1lambda6-thiophen-3-yl)-6-methoxy-N-[(pyridin-4-yl)methyl]-1,2,3,4-tetrahydronaphthalene-1-carboxamide]",> 50 µM
4,"O=C(Cn1cc(-c2ccc(F)c(F)c2)cn1)N(Cc1nc(C2CC2(F)F)cs1)C1C=CS(=O)(=O)C1 (stereo not shown) [I-718, N-{[4-(2,2-difluorocyclopropyl)-1,3-thiazol-2-yl]methyl}-2-[4-(3,4-difluorophenyl)-1H-pyrazol-1-yl]-N-(1,1-dioxo-2,3-dihydro-1lambda6-thiophen-3-yl)acetamide]",< 0.5 µM
5,"COCCOc1cc(CN(C(=O)Cc2ccc(S(F)(F)(F)(F)F)cc2)C2C=CS(=O)(=O)C2)ccn1 (stereo not shown) [I-719, N-(1,1-dioxo-2,3-dihydro-1lambda6-thiophen-3-yl)-N-{[2-(2-methoxyethoxy)pyridin-4-yl]methyl}-2-[4-(pentafluoro-lambda6-sulfanyl)phenyl]acetamide]",< 0.5 µM
6,"COc1cc(CN(C(=O)Cn2cc3cc(OC(F)(F)F)ccc3n2)[C@@H]2C=CS(=O)(=O)C2)ccn1 [I-720, N-[(3R)-1,1-dioxo-2,3-dihydro-1lambda6-thiophen-3-yl]-N-[(2-methoxypyridin-4-yl)methyl]-2-[5-(trifluoromethoxy)-2H-indazol-2-yl]acetamide]",0.5 to 5 µM
7,"COc1cc(CN(C(=O)Cn2ncc3cc(OC(F)(F)F)ccc32)[C@@H]2C=CS(=O)(=O)C2)ccn1 [I-721, N-[(3R)-1,1-dioxo-2,3-dihydro-1lambda6-thiophen-3-yl]-N-[(2-methoxypyridin-4-yl)methyl]-2-[5-(trifluoromethoxy)-1H-indazol-1-yl]acetamide]",0.5 to 5 µM
8,"COc1cc(CN(C(=O)Cn2nc(C)c3cc(C(F)(F)F)ccc32)[C@@H]2C=CS(=O)(=O)C2)ccn1 [I-722, N-[(3R)-1,1-dioxo-2,3-dihydro-1lambda6-thiophen-3-yl]-N-[(2-methoxypyridin-4-yl)methyl]-2-[3-methyl-5-(trifluoromethyl)-1H-indazol-1-yl]acetamide]",> 50 µM
9,"O=C(Cn1cc(-c2ccc(F)c(F)c2)cn1)N(Cc1nc([C@@H]2C[C@H]2F)cs1)C1C=CS(=O)(=O)C1 (stereo partly drawn) [I-723, 2-[4-(3,4-difluorophenyl)-1H-pyrazol-1-yl]-N-(1,1-dioxo-2,3-dihydro-1lambda6-thiophen-3-yl)-N-({4-[(1S,2R)-2-fluorocyclopropyl]-1,3-thiazol-2-yl}methyl)acetamide]",< 0.5 µM
10,"O=C(Cn1cc(-c2ccc(F)c(F)c2)cn1)N(Cc1nc([C@H]2C[C@H]2F)cs1)C1C=CS(=O)(=O)C1 (stereo partly drawn) [I-724, 2-[4-(3,4-difluorophenyl)-1H-pyrazol-1-yl]-N-(1,1-dioxo-2,3-dihydro-1lambda6-thiophen-3-yl)-N-({4-[(1R,2R)-2-fluorocyclopropyl]-1,3-thiazol-2-yl}methyl)acetamide]",< 0.5 µM
11,"O=C(Cc1ccc(S(F)(F)(F)(F)F)cc1)N(Cc1ccnc(OC(F)(F)F)c1)C1C=CS(=O)(=O)C1 (stereo not shown) [I-725, N-(1,1-dioxo-2,3-dihydro-1lambda6-thiophen-3-yl)-2-[4-(pentafluoro-lambda6-sulfanyl)phenyl]-N-{[2-(trifluoromethoxy)pyridin-4-yl]methyl}acetamide]",0.5 to 5 µM
12,"O=C(Cn1cc(-c2ccc(F)c(F)c2)cn1)N(Cc1nc(C2(F)CC2)cs1)C1C=CS(=O)(=O)C1 (stereo not shown) [I-726, 2-[4-(3,4-difluorophenyl)-1H-pyrazol-1-yl]-N-(1,1-dioxo-2,3-dihydro-1lambda6-thiophen-3-yl)-N-{[4-(1-fluorocyclopropyl)-1,3-thiazol-2-yl]methyl}acetamide]",< 0.5 µM
13,"N#CC1=CC(N(Cc2ccccc2)C(=O)Cc2ccc(-c3ccc(F)cc3)cc2)CS1(=O)=O (stereo not shown) [I-728, N-benzyl-N-(5-cyano-1,1-dioxo-2,3-dihydro-1lambda6-thiophen-3-yl)-2-{4′-fluoro-[1,1′-biphenyl]-4-yl}acetamide]",0.5 to 5 µM
14,"O=C(Cc1ccc(S(F)(F)(F)(F)F)cc1)N(Cc1nc(C(F)F)cs1)C1C=CS(=O)(=O)C1 (stereo not shown) [I-729, N-{[4-(difluoromethyl)-1,3-thiazol-2-yl]methyl}-N-(1,1-dioxo-2,3-dihydro-1lambda6-thiophen-3-yl)-2-[4-(pentafluoro-lambda6-sulfanyl)phenyl]acetamide]",> 50 µM
15,"COc1cc(CN(C(=O)C(c2ccc(-c3ccc(F)c(F)c3)cc2F)n2ncnn2)[C@@H]2C=CS(=O)(=O)C2)ccn1 (stereo partly drawn) [I-731, N-[(3R)-1,1-dioxo-2,3-dihydro-1lambda6-thiophen-3-yl]-N-[(2-methoxypyridin-4-yl)methyl]-2-(2H-1,2,3,4-tetrazol-2-yl)-2-{3,3′,4′-trifluoro-[1,1′-biphenyl]-4-yl}acetamide]",> 50 µM
16,"COc1cc(CN(C(=O)C(c2ccc(-c3ccc(F)c(F)c3)cc2F)n2ccnn2)[C@@H]2C=CS(=O)(=O)C2)ccn1 (stereo partly drawn) [I-732, N-[(3R)-1,1-dioxo-2,3-dihydro-1lambda6-thiophen-3-yl]-N-[(2-methoxypyridin-4-yl)methyl]-2-(1H-1,2,3-triazol-1-yl)-2-{3,3′,4′-trifluoro-[1,1′-biphenyl]-4-yl}acetamide]",< 0.5 µM
17,"COc1cc(CN(C(=O)C(c2ccc(-c3ccc(F)c(F)c3)cc2F)n2nccn2)[C@@H]2C=CS(=O)(=O)C2)ccn1 (stereo partly drawn) [I-733, N-[(3R)-1,1-dioxo-2,3-dihydro-1lambda6-thiophen-3-yl]-N-[(2-methoxypyridin-4-yl)methyl]-2-(2H-1,2,3-triazol-2-yl)-2-{3,3′,4′-trifluoro-[1,1′-biphenyl]-4-yl}acetamide]",< 0.5 µM
18,"COc1cc(CN(C(=O)C(c2ccc(-c3ccc(F)c(F)c3)cc2F)n2cnnn2)[C@@H]2C=CS(=O)(=O)C2)ccn1 (stereo partly drawn) [I-734, N-[(3R)-1,1-dioxo-2,3-dihydro-1lambda6-thiophen-3-yl]-N-[(2-methoxypyridin-4-yl)methyl]-2-(1H-1,2,3,4-tetrazol-1-yl)-2-{3,3′,4′-trifluoro-[1,1′-biphenyl]-4-yl}acetamide]",> 50 µM
19,"COc1cc(CN(C(=O)Cn2ncc(-c3ccc(F)c(F)c3)c2C)[C@@H]2C=CS(=O)(=O)C2)ccn1 [I-739, 2-[4-(3,4-difluorophenyl)-5-methyl-1H-pyrazol-1-yl]-N-[(3R)-1,1-dioxo-2,3-dihydro-1lambda6-thiophen-3-yl]-N-[(2-methoxypyridin-4-yl)methyl]acetamide]",< 0.5 µM
20,"COc1cc(CN(C(=O)C(OCCC#N)c2ccc(-c3ccc(F)c(F)c3)cc2F)[C@@H]2C=CS(=O)(=O)C2)ccn1 (stereo partly drawn) [I-744, 2-(2-cyanoethoxy)-N-[(3R)-1,1-dioxo-2,3-dihydro-1lambda6-thiophen-3-yl]-N-[(2-methoxypyridin-4-yl)methyl]-2-{3,3′,4′-trifluoro-[1,1′-biphenyl]-4-yl}acetamide]",0.5 to 5 µM
21,"COc1cc(CN(C(=O)C(OCc2cnn(C)c2)c2ccc(-c3ccc(F)c(F)c3)cc2F)[C@@H]2C=CS(=O)(=O)C2)ccn1 (stereo partly drawn) [I-745, N-[(3R)-1,1-dioxo-2,3-dihydro-1lambda6-thiophen-3-yl]-N-[(2-methoxypyridin-4-yl)methyl]-2-[(1-methyl-1H-pyrazol-4-yl)methoxy]-2-{3,3′,4′-trifluoro-[1,1′-biphenyl]-4-yl}acetamide]",0.5 to 5 µM
22,"COc1cnn(C(C(=O)N(Cc2ccnc(OC)c2)[C@@H]2C=CS(=O)(=O)C2)c2ccc(-c3ccc(F)c(F)c3)cc2F)c1 (stereo partly drawn) [I-748, N-[(3R)-1,1-dioxo-2,3-dihydro-1lambda6-thiophen-3-yl]-2-(4-methoxy-1H-pyrazol-1-yl)-N-[(2-methoxypyridin-4-yl)methyl]-2-{3,3′,4′-trifluoro-[1,1′-biphenyl]-4-yl}acetamide]",< 0.5 µM
23,"COc1cc(CN(C(=O)C(c2ccc(-c3ccc(F)c(F)c3)cc2F)n2ncc3ccncc32)[C@@H]2C=CS(=O)(=O)C2)ccn1 (stereo partly drawn) [I-751, N-[(3R)-1,1-dioxo-2,3-dihydro-1lambda6-thiophen-3-yl]-N-[(2-methoxypyridin-4-yl)methyl]-2-{1H-pyrazolo[3,4-c]pyridin-1-yl}-2-{3,3′,4′-trifluoro-[1,1′-biphenyl]-4-yl}acetamide]",10 to 50 µM
24,"COc1cc(CN(C(=O)C(OC2COC2)c2ccc(-c3ccc(F)c(F)c3)cc2F)[C@@H]2C=CS(=O)(=O)C2)ccn1 (stereo partly drawn) [I-752, N-[(3R)-1,1-dioxo-2,3-dihydro-1lambda6-thiophen-3-yl]-N-[(2-methoxypyridin-4-yl)methyl]-2-(oxetan-3-yloxy)-2-{3,3′,4′-trifluoro-[1,1′-biphenyl]-4-yl}acetamide]",5 to 10 µM
25,"O=C(Cn1cc(-c2ccc(F)cc2)cn1)N(Cc1ccnc(OC(F)(F)F)c1)C1C=CS(=O)(=O)C1 (stereo not shown) [I-753, N-(1,1-dioxo-2,3-dihydro-1lambda6-thiophen-3-yl)-2-[4-(4-fluorophenyl)-1H-pyrazol-1-yl]-N-{[2-(trifluoromethoxy)pyridin-4-yl]methyl}acetamide]",0.5 to 5 µM
